According to patent US20240002441A1, “PEPTIDES AND USES THEREOF IN MODULATION OF AMYLOID-BETA PROTEIN DEGRADING PROTEASES” (priority 2020, published 2024):

Experiments:
HEK293 cells = experiment: Peptide stability study in HEK293 cells, LCMS (Example 4); assay type: in vitro ADME; conditions: peptide 9 μM, Opti-MEM, 60 min
Method: SEQ ID NO:2 was prepared as a C-terminal amidated analogue of SEQ ID NO:1. The stability of SEQ ID NO:1 and SEQ ID NO:2 was assessed in HEK293 and EA.hy926 cells grown in culture and their break down was monitored by LCMS over 60 min using the following procedure.
(§1) HEK293 (passage 24) or Ea.hy926 (passage 37) were seeded into tissue-culture-grade 96-well plates at a density of 20,000 cells/well. After 24 hr, cells were washed with PBS and replaced with Opti-MEM reduced serum media containing SEQ ID NO:1 or SEQ ID NO:2 (9 μM). Aliquots of equal volume were taken at T=0 and 60 min. SEQ ID NO:2 was added to control wells having media (no cells) only. Samples were immediately acidified in 0.1% TFA, snap frozen in dry ice and stored in −80° C. until analysed by LCMS.
(§2) Samples were analyzed by LC-MS/MS on a Shimadzu Nexera uHPLC (Japan) coupled to a Triple Tof 5600 mass spectrometer (ABSCIEX, Canada) equipped with a duo electrospray ion source. One μL of each extract was injected onto a 2.1 mm×100 mm Zorbax C18 1.8 um column (Agilent) at 200 μL/min. […] SEQ ID NO:1 and SEQ ID NO:2 were quantified using the […] doubly charged molecular ion from m/z 510.270 to 510.325. The data was acquired using Analyst TF 1.6 and quantification was carried out using MultiQuant 2.1.1 software (ABSCIEX, Canada).

[1] = Peptide stability control, medium with no cells (Example 4); assay type: in vitro ADME; conditions: media only (no cells), possible adherence to plastic
Method: as §1
as §2, with “μL/min. Linear gradients of 1-50% solvent B over 7 min at 200 uL/min flow rate, followed by a steeper gradient from 50% to 98% solvent B in 1 min were used for peptide elution. Solvent B was held at 98% for 3 min for washing the column and returned to 1% solvent B for equilibration prior to the next sample injection.” for “μL/min.”

STZ diabetic mouse model [2] = experiment: STZ diabetic mouse model, inflammation and fibrosis (Example 12); assay type: in vivo; conditions: 1 mg/kg subcutaneously by minipump, 4 weeks
Method: Mice were divided into two groups, all mice were treated with STZ (150 mg/kg) 1 week before starting treatment. Prior to STZ treatment, urine and blood samples were taken and a blood glucose test undertaken. Similarly, before treatment began, one week post STZ administration, urine and blood samples were taken and blood glucose was assessed. The two treatment groups were then treated with either vehicle only or SEQ ID NO: 2 (1 mg/kg) subcutaneously by minipump. The mice were then monitored for 4 weeks before sacrifice. Monitoring included assessing the weight of each animal every day, and taking urine and blood samples and measuring blood glucose at 2 weeks post treatment and immediately before sacrifice.

STZ diabetic mouse model [3] = experiment: STZ diabetic mouse model, kidney inflammation and fibrosis, ND and STZ mice (Example 14); assay type: in vivo; conditions: for post treatment blood glucose compared with vehicle: 1 mg/kg s.c. osmotic minipump
Method: Mice were divided into four groups, two groups of mice remained untreated (ND) and two groups of mice were treated with STZ (150 mg/kg) by i.p. injection 1 week before starting treatment with SEQ ID NO. 2 or vehicle. Before treatment with SEQ ID NO. 2 or vehicle began, one week post STZ administration, 24 hour urine and blood samples were taken and blood glucose was assessed in all mice. The two ND groups and the two STZ treatment groups were then treated with either vehicle (10% DMSO/PBS) only or SEQ ID NO: 2 (1 mg/kg) subcutaneously by osmotic minipump. The mice were then monitored for 3 months before sacrifice. Monitoring included assessing the weight of each animal every day, taking blood samples biweekly and 24 hour urine samples at 1, 2 and 3 months post treatment. 24 hour urine samples were collected from mice placed in metabolic cages. At 3 months after treatment, a blood sample was collected (cardiac bleed) and the animals were sacrificed. Kidney and heart tissues were collected and weight and the tissues processed for in vitro analysis.
Urine samples were analysed for urinary albumin ELISA. The volume of urine was measured and then samples were diluted by 1:8000 with water. The samples were incubated for 1 h in antibody-coated 96-well plates (in duplicate). After incubation, a Development solution (100 μL) containing sandwich antibody was added to the wells and the samples incubated for 10 minutes in the dark. Stop solution (100 μL) was added and the optical density was measured at 450 nm.
The kidney tissue samples were analysed for fibrosis using Masson's trichrome staining. 4 μm-thick paraffin-embedded kidneys were sectioned. After dewaxing, sections were post-fixed in Bouin's fixative overnight. The slides were stained in Weigert's iron haematoxylin followed by Biebrich scarlet-acid fuchsin solution. The slides were differentiated in phosphomolybdic-phosphotungstic acid solution and then further stained in aniline blue solution. After differentiation in 1% acetic acid solution the slides were mounted with mounting medium and the sections were imaged on an Aperio Slide Scanner at ×20 magnification. The images were analysed on ImageJ.
Kidney samples in mice sacrificed one month after treatment were also analysed for the presence of IL-6 by western blot analysis. Homogenised kidney samples were heat-denatured and separated using SDS-PAGE. The membranes were incubated with IL-6 primary antibody at 1:500 dilution, followed by incubation with a secondary antibody (goad anti-rabbit antibody at 1:16000) and developed the following day using enhanced chemiluminescence (ECL) as a substrate. β-actin was used as a loading control.

## H-SLFELGKMIL-NH2 [SEQ ID NO:2, H2N-SLFELGKMIL-NH2]
HEK293 cells
  amount remaining in the medium of HEK293 cells: 54%±4%
[1]
  amount remaining in the medium with no cells after 60 min: 63%±14%
STZ diabetic mouse model [2]
  blood glucose compared with vehicle treated mice: lower
  kidney IL-6 expression compared with vehicle treated mice: lower
  kidney collagen I expression compared with vehicle treated mice: lower
  kidney collagen III expression compared with vehicle treated mice: lower
STZ diabetic mouse model [3]; ND mice
  post treatment blood glucose compared with vehicle: similar
STZ diabetic mouse model [3]; ND mice, before and after treatment
  urine volume per day: the same before or after treatment
STZ diabetic mouse model [3]; ND mice, peptide or vehicle
  kidney:bodyweight ratio: remained the same
  urinary albumin: remained the same
STZ diabetic mouse model [3]; STZ mice
  kidney:bodyweight ratio, increase compared with STZ mice treated with vehicle: even more
  post treatment blood glucose compared with vehicle: marginally lower
STZ diabetic mouse model [3]; STZ mice sacrificed one month after treatment, western blot
  kidney IL-6 expression compared with vehicle treated STZ mice: lower
STZ diabetic mouse model [3]; STZ mice, 2 and 3 months post treatment, with either vehicle or peptide
  urinary albumin: increased
STZ diabetic mouse model [3]; STZ mice, Masson's trichrome staining
  renal cortical fibrosis compared to STZ mice treated with vehicle: tendency to be lower
STZ diabetic mouse model [3]; STZ mice, whether treated with peptide or vehicle
  urine volume per day: increased urine volume per day
